From publication PMC12463534, “Exploring the Anticancer Properties of 4-Phenylthiazole-Based Ru(II) and Os(II) Metallacycles Featuring 1-Methylimidazole as N-Donor Functionality” (Bioinorganic Chemistry and Applications, 2025)
pIC50: −log10 of the molar value.

What was measured:
[1] = test system: G4 forming sequences (h-Telo, bcl2, hTERT, Kit1, Kit2) and dsDNA; assay: FRET melting assay, G-quadruplex / B-DNA interaction; format: binding, human; settings: 60 mM potassium cacodylate pH 7.4, 2 h incubation
Procedure: G4s are DNA secondary motifs that play crucial roles in cancer development. […] The complexes were incubated with different G4 forming sequences: one derived from human telomere-forming (h-Telo) and four corresponding to promoter regions of oncogenes, namely, bcl2, hTERT, Kit1, and Kit2. For comparison, a self-complementary sequence called dsDNA was used to represent B-DNA (Table S2).
FRET experiments were conducted using an Applied Biosystems QuantStudio 6 PCR cycler in a 96-well format equipped with a FAM (6-carboxyfluorescein) filter. Oligonucleotide stock solutions, labelled with FAM and TAMRA (6-carboxytetramethylrhodamine) probes, were diluted to the desired concentration in a 60-mM potassium cacodylate buffer (pH 7.4). To fold the oligonucleotides into their B-DNA or G4 topologies, the solutions were heated to 95°C for 5 min and then allowed to cool slowly to room temperature overnight. The final concentration of the oligonucleotides was 0.2 μM, with a total volume of 30 μL in each well. Metal complexes were dissolved in DMF to prepare 2 mM stock solutions and further diluted with the buffer, where DMF concentration never exceeded 0.05%. Mixtures of oligonucleotides and metal compounds were left at room temperature for 2 h. Data were collected twice, each time in duplicate, over a temperature range of 25°C–95°C, with a ramp of 1°C every 30 s. FAM emission data were normalized from 0 to 1 to compare different datasets. After data normalization, we extrapolated the T1/2 values, i.e., the temperature at which normalized FAM emission is 0.5. The DNA concentration is expressed in strands.

SW480 cancer cells = assay: Cellular accumulation (ICP-MS) in SW480 cells; settings: 50 μM, 0.5% DMF in MEM, SW480, exposure time 2 h
Procedure: As the coordinated p-cym and leaving groups are present in all synthesized complexes, we focused on the differently substituted 4-phenylthiazoles for estimated changes in lipophilicity.
Cellular accumulation of the compounds was studied based on a method described previously with modifications. 1.8 × 10^5 SW480 cells per well were seeded in aliquots of 1 mL of complete MEM (see above) into 12-well plates (CytoOne, tissue culture treated, Starlab) and incubated at 37°C for 24 h. Then, cells were exposed for 2 h at 37°C to 50 μM solutions of the test compounds (containing 0.5% DMF) in fresh 0.5 mL of complete MEM upon exchange of the medium. Afterward, cells were washed three times with 1 mL PBS per well, lysed with 0.4 mL sub-boiled HNO3 per well for 1 h at room temperature, and 0.3 mL of each sample was diluted with 7.7 mL Milli-Q water. Adsorption/desorption controls were prepared in the same manner in cell-free wells. Ruthenium content was quantified by ICP-MS using an ICP-quadrupole MS Agilent 7800 instrument (Agilent Technologies, Waldbronn, Germany) as described previously.

[2] = Stability and reactivity in aqueous solution (1H-NMR, UV-vis)
Procedure: The exact concentration of the metal complex stock solutions was calculated on weight-in-volume basis. Complexes were dissolved in water in 1–5 mM concentration.
The path length was 1 cm.
^1H-NMR spectroscopic studies were carried out on a Bruker FT-NMR spectrometer AV NEO 500.10 MHz and a Bruker Avance III HD Ascend 500 Plus instrument. All ^1H-NMR spectra were recorded using a standard Bruker noesygppr1d pulse sequence to suppress water resonance. […] Samples contained 10% (v/v) D2O with a complex concentration of ca. 1 mM. Samples were prepared in pH 1.3 aqueous HCl solution or in pH 7.4 PBS.

[3] = Ruthenium levels in tissues by ICP-MS; format: in vivo; settings: CT26-bearing mice, 2 h after last injection
Procedure: Tumor-specific organs and blood serum, harvested from the other animals 2 h after the last injection (Figure 5(c)), were measured for the average ruthenium content by inductively coupled plasma mass spectrometry (ICP-MS) of tissue homogenates.
CT26 cells (5 × 10^5 cells in 50-μL serum-free medium) were injected subcutaneously (s.c.) into the right flank of 8–16-week-old BALB/c mice (Envigo Laboratories, San Pietro Al Natisone, Italy). After 3 days, therapy treatment started on five consecutive days for 2 weeks. Animals were treated i.p. with 50 mg/kg 1c and 3c (all dissolved in 10% DMSO in 0.9% NaCl, 12 mice per group). The solvent control animals received 10% DMSO in 0.9% NaCl. Every day, the animals were monitored for the overall health conditions and tumor size was measured regularly by caliper measurement. Tumor volumes (mm^3) were calculated using following formula: length × width^2/2. […] Tumor growth and possible side effects of the treatment were evaluated by daily recording the tumor size by caliper measurement and parameters of the animal's overall health conditions. In the tissue sampling arm at the experiment, the mice were sacrificed by cervical dislocation 2 h after the last treatment. Tumors as well as organs were collected. Additionally, blood was drawn and incubated for 25 min to allow blood clotting. To isolate serum and blood pellets, the blood was centrifuged for 10 min at 17,900 g at room temperature. The supernatant characterized as serum was transferred to a new tube and centrifuged again to remove residual red blood cells. All collected samples were stored at −20°C and further processed for platinum measurements via ICP-MS.
The ruthenium concentration was determined by ICP-MS analysis. Ruthenium and rhenium standards were derived from LabKings (LabKings B.V., The Netherlands). The total ruthenium content was determined with a quadrupole-based ICP-MS instrument Agilent 7800 (Agilent Technologies, Tokyo, Japan) equipped with the Agilent SPS 4 autosampler (Agilent Technologies, Tokyo, Japan) and a MicroMist nebulizer at a sample uptake rate of approximately 0.2 mL·min^−1. […] Argon was used as plasma gas (15 L·min^−1) and as carrier gas (∼1.08 L·min^−1). The integration time was set to 0.1 s, and measurements were performed in 6 replicates with 100 sweeps. Rhenium served as internal standard for ruthenium.

[4] = test system: HCT116 colorectal cancer cell line (2D); assay: Resazurin assay, HCT116 2D (monolayer) culture; settings: read-out: IC50 2D, resazurin assay, 96 h exposure
Procedure: Both models were investigated by the fluorimetric resazurin assay after 96-h exposure.
HCT116 colorectal carcinoma cells (RRID:CVCL_0291 from ATCC) were cultivated in McCoy's 5A medium, supplemented with 10% heat-inactivated fetal bovine serum and 4 mM L-glutamine.
For 2D experiments, HCT116 cells were harvested from culture flasks by trypsinization, seeded in 100-μL aliquots into 96-well microculture plates (CytoOne, TC-treated, from Starlab) in densities of 2 × 10^3 cells per well, and incubated for 24 h prior to exposure to the test compounds. […] Stock solutions of test compounds were prepared in DMF, which were then diluted in McCoy's 5A-supplemented medium (not to exceed a final content of 0.5% v/v of organic solvent in the test plates), and serial dilutions were added in aliquots of 100 μL per well. […] After incubation for 4 h, fluorescence was measured with a microplate reader (Bio-Tek, SynergyHT) at a wavelength of 530 nm, additionally using a reference wavelength of 620 nm.

## Cc1ccc(C(C)C)cc1.Cn1cc[n+]([Ru-]2[c]3cc(S(C)(=O)=O)ccc3-c3csc[n+]32)c1.O=[N+]([O-])[O-] [Compound 3c, [((3-κN)-1-Methylimidazole)(4-(4-(methylsulfonyl)phenyl)thiazolato-κN,κC2′)(η^6-p-cymene)ruthenium(II)] Nitrate]
[1]
  Stabilization of oligonucleotides (G4s or B-DNA): No stabilization
SW480 cancer cells
  Cellular accumulation, fg Ru/cell: 4.6 ± 0.6 fg Ru/cell
[2]; 3 M KCl, pH 7.4, UV-vis
  Sensitivity to chloride: replacement of coordinated MeIm: could not replace coordinated MeIm
[2]; PBS pH 7.4, 1 mM complex, 25°C, within 6 days, 1H-NMR
  Decomposition at pH 7.4: no decomposition
[2]; pH = 1.0 or 1.3 (HCl), followed in time up to 6 days, 1H-NMR/UV-vis
  Behaviour in acidic solution: decomposition
[2]; pH = 10.0 (NaOH), within 2 days, UV-vis
  Spectral change at pH 10.0: no spectral change
[3]
  Ruthenium level in liver: ~20 mg/kg
  Ruthenium level in tumor: ~1 mg/kg
[4]
  pIC50: < 3.70
